Literature values as cited in patent US20100209368A1, “METHOD AND PREPARATION FOR TREATING BALDNESS” (priority 2009, published 2010).

Tests used:
[1] = not given; remark: listed apart in the source

| Molecule | solubility in ethanol (ethanol) | solubility in isopropyl myristate (isopropyl myristate) | solubility in polyethylene glycol (PEG) (polyethylene glycol) | solubility in water | stability upon addition of water or ethanol ([1]; PEG or isopropyl myristate with added water or ethanol) | stability in pure solvents ([1]; pure PEG or isopropyl myristate) |
| --- | --- | --- | --- | --- | --- | --- |
| O=C(OOC(=O)c1ccccc1)c1ccccc1 [Benzoyl peroxide, benzoyl peroxide] | slight solubility | soluble | soluble | low solubility | greatly increased | not stable |
| zinc pyrithione |  |  |  | sparingly soluble |  |  |
